Data: paper PMC11750672, “The in vivo metabolic pathway of Deg-AZM and in vitro investigations into the contribution of drug metabolizing enzymes and drug transporters in the drug interactions of Deg-AZM, a clinical-stage new transgelin agonist” (Frontiers in Pharmacology, 2025)

Assays:
[1] = Exposure profiles of Deg-AZM and metabolites in rat plasma, urine, feces and bile (UPLC-QTOF-MS); format: in vivo, rats; conditions: / = not detected; for Proportion in total related substances, Feces: rat feces 0-24 h; for Proportion in total related substances, Plasma: rat plasma 0.167-8 h after oral Deg-AZM, by AUC0-t of chromatographic peak area; for Proportion in total related substances, Urine: rat urine 0-24 h
Description: (§1) The plasma samples at 0.167 h, 0.5 h, 3 h and 8 h after administration were obtained from the study of tissue distribution in rats ([Gu et al., 2024]). Urine, feces and bile samples at 0–24 h after administration were obtained from the excretion study of a single gavage administration of 25 mg/kg Deg-AZM in rats ([Gu et al., 2024]).
Plasma samples were precipitated with methanol at a ratio of 1:3. Urine samples were diluted with 50% methanol at a ratio of 1:80. The feces was thoroughly ground and sonicated with a 50% methanol at a ratio of 1 g/10 mL to obtain the homogenate, then the homogenate were precipitated with methanol at a ratio of 1:1. Bile samples were precipitated with 50% methanol at a ratio of 1:1. The above obtained samples were vortexed for 1 min and centrifugated at 4°C, 12,000 rpm for 10 min. Finally, the upper layer was analyzed using the UPLC-QTOF-MS system.
The metabolites of Deg-AZM in the plasma, urine, feces and bile samples were identified by UPLC-QTOF-MS system. Liquid chromatography was performed on an ACQUITY UPLC^TM I-Class UPLC unit with a Waters ACQUITY UPLC HSS T3 (100 × 2.1 mm, 1.8 µm). A gradient program was employed with the mobile phase combining solvent A (0.02% formic acid in 5% acetonitrile) and solvent B (acetonitrile) as follows: 100% A (0–0.5 min), 100%–85% A (0.5–7 min), 85%–5% A (7–9 min), 5% A (9–12 min), 5%–100% A (12–15 min). The flow rate was 0.40 mL/min. The column temperature was maintained at 40°C.
A Waters Q-TOF Xevo G2-XS Spectrometer equipped with ESI source under positive ion mode was utilized to conduct mass spectrometry detection, for which the MS^E mode was set at the mass range of 100–1,000 Da. The cone voltage was 40 V. The desolvation temperature was set at 500°C and source temperature was 100°C. The desolvation gas flow rate was 800 L/h and the cone gas flow rate was 50 L/h. In MS^E centroid mode, the MS data were acquired with the low energy function in the trap collision energy (6 eV), and the tandem mass data were acquired with the high energy function in the ramp trap collision energy (35–45 eV).
The extraction ion chromatogram of plasma samples at 0.167 h, 0.5 h, 3 h and 8 h after administration of Deg-AZM in rats was shown in Figure 2. The extraction ion chromatogram of urine, feces and bile samples collected from 0 to 24 h after oral administration of Deg-AZM in rats was shown in Figure 3. The AUC0-t of Deg-AZM and its metabolites in plasma sample were calculated by trapezoidal rule based on the chromatographic peak area. 21 metabolites were found in rat plasma, with M0 (Deg-AZM) and metabolite M2 (demethylated) being the main exposure forms in rat plasma. M0 and M2 accounted for 61.6% and 23.0% of the total related substances in rat plasma, respectively. The relative proportions of Deg-AZM and its metabolites in urine, feces and bile samples were evaluated by the chromatographic peak area, as shown in Figure 4. The detailed proportion of Deg-AZM and its metabolites could be found in Supplementary Table S1. M0 and 28 metabolites were found in the urine of rats. […] M0 and 42 metabolites were found in the feces of rats. Metabolite M1-2 (monohydroxylation, 18.1%) and metabolite M2 (16.6%) were the main forms of fecal excretion of Deg-AZM in rats after oral administration. M0 and 38 metabolites were found in the bile samples of rats. Metabolite M1-2 (monohydroxylation, 19.2%) and metabolite M2 (16.5%) were the main forms of biliary excretion of Deg-AZM in rats after oral administration.

[2] = Excretion and material balance in rats (urine, feces 0-24 h); format: in vivo; conditions: through the kidneys and urine
Description: as §1
The types and proportions of metabolites in the excretion pathway were elucidated in this study. […] Based on the peak area in this study, the total amount of metabolites in urine and feces of rats was 0.589 times and 9.96 times that of the original form of Deg-AZM, respectively. The total amount of Deg-AZM excreted in its original form and various metabolites in urine and feces was 23.7% and 19.8% of the administered dose, respectively, with a material balance coefficient of 43.5%. Deg-AZM was mainly excreted in the form of its original form M0 (cumulative excretion fraction of 14.9%) and metabolite M2 (cumulative excretion fraction of 5.33%) through the kidneys and urine, and in the form of metabolite M1-2 (cumulative excretion fraction of 4.29%) and M2 (cumulative excretion fraction of 3.93%) through the intestines and feces. […] It is necessary to obtain standard samples of the main metabolites for accurate quantification or use isotope tracing techniques to further improve material balance research in the clinical stage.

CYP1A2 = assay: CYP induction (mRNA, qPCR) in human hepatocytes; format: in vitro ADME; conditions: positive control 50 μM
Excerpt: (§2) After culture and complete induction, total mRNA was extracted by TRNzol RNA Extraction Kit (purchased from Tiangen Biochemical Technology Co., Ltd., Beijing). The RNA was reverse transcribed into cDNA according to the instructions of the Transcriptor First Strand cDNA Synthesis Kit (purchased from Roche, Switzerland). Using reverse transcribed cDNA as a template, amplifying the internal reference genes of β-Actin of the sample and target genes of CYP1A2, CYP2B6, and CYP3A4 respectively to compare the expression differences.

CYP2B6 = assay: CYP induction (mRNA, qPCR) in human hepatocytes; conditions: positive control 1 mM
Excerpt: as §2

P-gp = system: T1, P-gp; assay: Bidirectional transport in Caco-2 cell monolayer with P-gp inhibitor quinidine; format: in vitro ADME, human; conditions: human, Caco-2, with quinidine 50 μM; efflux positive control, (+) quinidine; n = 3
T1 construct: evaluated using Caco-2 cell monolayer both apical-to-basolateral (A-B) and basolateral-to-apical (B-A) directions; endogenous in cells; host or cells: Caco-2
Description: (§3) The human colon adenocarcinoma Caco-2 cell line was provided by Institute of Basic Medicine, Chinese Academy of Medical Sciences (Beijing, China). Caco-2 cells were cultured in a high sugar DMEM medium containing 10% (v/v) fetal bovine serum at 37°C and 5% CO2 incubator. Caco-2 cells (2.5 ×10^5/mL) was inoculated into Transwell polycarbonate membrane 12 well plate. The culture medium was changed every 2 days for the first 14 days, and then every day. After 21 consecutive days, fully differentiated cell monolayers were obtained for drug transport assays.
(§4) Transepithelial electrical resistance (TEER) was used to indicate monolayer integrity. The electrode of the Millcell ERS-2 voltammeter was placed in HBSS solution for 20 min to pre-balance. At the same time, the culture medium was removed from the Transwell culture plate, 0.5 mL of pre-heated HBSS solution was added into the Apical (AP) of transwell, 1.5 mL of pre-heated HBSS solution was added into the Basolateral (BL) of transwell. After that, the transwell was balanced at 37°C for 20 min and then replaced the HBSS solution with the pre-heated HBSS solution, the TEER value was measured finally. Caco-2 cell monolayers with TEER >350 Ω cm^2 which means that the cells have formed a tight monolayer, were used for the experiment. The TEER value was calculated according to the following formula: TEER=TEERT ‐ TEERc×A where TEERT represented the TEER value (Ω) of the measured Transwell chamber with Caco-2 cells, TEERC was the TEER value (Ω) of the transwell chamber in the control group, and A was the membrane area of the transwell cavity (1.12 cm^2 in this experiment).
(§5) In order to evaluate the usability of the Transwell model research, [^3H] Propranolol (0.5 μCi/mL) and [^14C] PEG4000 (1 μCi/mL) served as high-permeability and impermeability controls to verify the uptake direction on Caco-2 cell monolayer, respectively. Rhodamine 123 was used as a positive control for efflux mechanism in bidirectional transport assay on Caco-2 cell monolayer.
(§6) The transmembrane permeability of Deg-AZM (2, 10 or 50 µM) and the potential to inhibit P-gp by Deg-AZM (2, 10 or 50 µM) were evaluated using Caco-2 cell monolayer both apical-to-basolateral (A-B) and basolateral-to-apical (B-A) directions at 37°C for 1 h, the experiments were conducted using quinidine (50 μM) as the inhibitor for P-gp. At the end of incubation, receiver and donor samples were both diluted by assay buffer and analyzed by LC-MS/MS.

[3] = Bidirectional transport in Caco-2 cell monolayer; format: in vitro ADME, human; conditions: human, Caco-2, efflux positive control, (−) without quinidine
Description: as §3, §4, §5, §6

Caco-2 cell monolayer = assay: Bidirectional transport in Caco-2 cell monolayer; format: in vitro ADME, human; conditions: 0.5 μCi/mL, high-permeability control; n = 3
Description: as §3, §4, §5, §6

[4] = single gavage 25 mg/kg Deg-AZM, by peak area
[5] = single gavage 25 mg/kg Deg-AZM, by peak area, 25 mg/kg

Which “Proportion in total related substances, Bile” value ([1]; rat bile 0-24 h, single gavage 25 mg/kg Deg-AZM, by peak area) does the source give for CCC1OC(=O)C(C)C(O)C(C)C(O)C(C)(O)CC(C)CNC(C)C(O)C1(C)O (centres unmarked) [M2] here?
The value was 16.5%.

And the “Proportion in total related substances, Feces” value [1, 4]?
Its value is 16.6%.

And the “Proportion in total related substances, Plasma” value [1]?
Its value is 23.0%.

And the “Proportion in total related substances, Urine” value [1, 4]?
The value was 22.5%.

What about the “Cumulative excretion fraction, urine” value [2] of the same compound?
The value was 5.33%.

Which results are given for CCC(O)C(C)(O)C(O)C(C)N(C)CC(C)CC(C)(O)C(O)C(C)C(O)C(C)C(=O)O (centres unmarked) [M11]?
Proportion in total related substances, Feces [1, 5]: 1.24%; Proportion in total related substances, Plasma [1]: 2.04%; Proportion in total related substances, Urine [1, 5]: 0.224%

Which “CYP1A2 mRNA induction, times of control group” value (“CYP1A2 mRNA induction, times” below) (CYP1A2; hepatocyte batch HUB) does the source give for COc1ccc2[nH]c([S+]([O-])Cc3ncc(C)c(OC)c3C)nc2c1 (centres unmarked) [Omeprazole, reference compound] here?
The value was 48.2.

And the “CYP1A2 mRNA induction, times” value (CYP1A2; hepatocyte batch LHuf 17905B)?
The value was 56.0.

What about the “CYP1A2 mRNA induction, times” value (CYP1A2; hepatocyte batch MWB) of the same compound?
The value was 64.6.

Which results are given for CCC1(c2ccccc2)C(=O)NC(=O)NC1=O [Phenobarbital, reference compound]?
CYP2B6 mRNA induction, times of control group (CYP2B6; hepatocyte batch HUB): 13.5; CYP2B6 mRNA induction, times of control group (CYP2B6; hepatocyte batch LHuf 17905B): 10.3; CYP2B6 mRNA induction, times of control group (CYP2B6; hepatocyte batch MWB): 14.7

What does the source list for COC(=O)c1ccccc1-c1c2ccc(=N)cc-2oc2cc(N)ccc12 [Rhodamine 123, reference compound]?
Papp A→B (P-gp): 0.00478 ± 0.000709 ×10⁻⁶ cm/s; Papp B→A (P-gp): 0.0417 ± 0.0152 ×10⁻⁶ cm/s; Papp A→B ([3]; n = 3): 0.0031 ± 0.00141 ×10⁻⁶ cm/s; Papp B→A ([3]; n = 3): 0.166 ± 0.0287 ×10⁻⁶ cm/s; efflux ratio ([3]; read-out: ER): 53.5

For CC(C)NCC(O)COc1cccc2ccccc12 (centres unmarked) [[^3H] Propranolol, reference compound], which “P app AP→BL” value (Caco-2 cell monolayer) is on record?
Its value is 9.64 ± 1.05 ×10^–6 cm/s.
